The values that follow come from patent US10189786B2, “Antibacterial compounds” (Duke University, priority 2013, dated 2019).

Converted amounts (≈) assume the structure as drawn.

Format in all cases: cell-based
Experiment [1] deals with N. gonorrhoeae 35/02 (drug-resistant strain). As to the kind of experiment: Disk diffusion assay, N. gonorrhoeae 35/02. To be noted: disc 6 mm; for zone of inhibition at 0.2 µg/disc / zone of inhibition at 2 µg/disc / zone of inhibition at 20 µg/disc: Neisseria gonorrhoeae, read-out: diameter of the growth inhibition, 35/02. The method, then:
(§1) An assay was performed on two strains of Acinetobacter Baumannii: antibiotic susceptible strain (Sus. A.b. Isolate), and multidrug-resistant strains (MDR A.b. Isolate). […] Activity is measured as the diameter (in mm) of the growth inhibition.
(A growth-free zone around the sample is the usual read-out of agar diffusion tests.)

In experiment [2] the test system is N. gonorrhoeae FA19 (a drug-sensitive strain). As to the kind of experiment: Disk diffusion assay, N. gonorrhoeae FA19. To be noted: disc 6 mm; for zone of inhibition at 0.2 µg/disc / zone of inhibition at 2 µg/disc / zone of inhibition at 20 µg/disc: Neisseria gonorrhoeae, read-out: diameter of the growth inhibition, FA19. The method, then: as §1
For another experiment, the system named is E. coli W3110. Nature of the experiment: microbe, parasite or virus in culture. To be noted: wild-type E. coli W3110, 22 hours at 37° C., MTT; for MIC: Escherichia coli, W3110, 22 h.
For experiment [3], the system named is N. gonorrhoeae F89 (high-level cefixime and ceftriaxone resistance). Nature of the experiment: Disk diffusion assay, N. gonorrhoeae F89. The conditions noted are these: disc 6 mm; for zone of inhibition at 0.2 µg/disc / zone of inhibition at 2 µg/disc / zone of inhibition at 20 µg/disc: Neisseria gonorrhoeae, read-out: diameter of the growth inhibition, F89. The method, then: as §1

The next experiment concerns N. gonorrhoeae H041. Nature of the experiment: Disk diffusion assay, N. gonorrhoeae H041. To be noted: disc 6 mm; for zone of inhibition at 0.2 µg/disc / zone of inhibition at 2 µg/disc / zone of inhibition at 20 µg/disc: Neisseria gonorrhoeae, read-out: diameter of the growth inhibition, H041; for zone of inhibition at 0.2 µg/disc: H041, 0.2 μg per disc; for zone of inhibition at 2 µg/disc: H041, 2.0 μg per disc; for zone of inhibition at 20 µg/disc: H041, 20 μg per disc. The method, then: as §1

The test system of a further experiment is E. coli W3110PA. Nature of the experiment: microbe, parasite or virus in culture. To be noted: E. coli with native lpxC replaced by that of P. aeruginosa; for MIC: Escherichia coli, W3110PA; for MIC E. coli W3110PA: unit from b306.
Another experiment has as its system P. aeruginosa PAO1. As to the kind of experiment: MIC assay, P. aeruginosa PAO1. The conditions noted are these: for MIC: Pseudomonas aeruginosa.
In experiment [4] the test system is F. novicida U112 (FNU112). As to the kind of experiment: microbe, parasite or virus in culture. To be noted: Francisella tularensis, read-out: MIC FNU112.
Where [5] appears, read: 0.2 μg per disc, listed as 3 (Isomer B).

As to `CC(CCn1ccc(-c2ccc(-n3nccn3)cc2)cc1=O)(C(=O)NO)C(C)(O)C(F)F` (centres unmarked) [Example 4, 2-(2-(4-(4-(2H-1,2,3-triazol-2-yl)phenyl)-2-oxopyridin-1 (2H)-yl)ethyl)-4,4-difluoro-N,3-dihydroxy-2,3-dimethylbutanamide], the zone of inhibition at 0.2 µg/disc came out at 0 mm in experiment [1] (0.2 μg per disc), 0 mm in experiment [2] (0.2 μg per disc), 7 mm in experiment [3] (0.2 μg per disc) and 7 mm in the experiment with N. gonorrhoeae H041. In addition, the zone of inhibition at 2 µg/disc in experiment [1] (2.0 μg per disc) came out at 11 mm; in experiment [2] (2.0 μg per disc), 8 mm; in experiment [3] (2.0 μg per disc) it was 15 mm; in the experiment with N. gonorrhoeae H041 it was 10 mm. Further, the zone of inhibition at 20 µg/disc came out at 16 mm in experiment [1] (20 μg per disc), 19 mm in experiment [2] (20 μg per disc), 26 mm in experiment [3] (20 μg per disc) and 16 mm in the experiment on N. gonorrhoeae H041. For the same compound, the MIC was 3.12 mg/L (≈ 6.97 µM) against E. coli W3110 and 3.13 mg/L (≈ 7 µM) against E. coli W3110PA.

In the case of `C[C@@](O)(C(F)F)[C@H](NCc1ccc(-c2ccccc2)cc1)C(=O)NO` [Example 5, (2S,3S)-2-(biphenyl-4-ylmethylamino)-4,4-difluoro-N,3-dihydroxy-3-methylbutanamide], the zone of inhibition at 0.2 µg/disc turned out to be 0 mm in experiment [1] (0.2 μg per disc), 0 mm in experiment [2] (0.2 μg per disc), 8 mm in experiment [3] (0.2 μg per disc) and 7 mm in the experiment on N. gonorrhoeae H041. Further, the zone of inhibition at 2 µg/disc worked out at 16 mm in experiment [1] (2.0 μg per disc), 25 mm in experiment [2] (2.0 μg per disc), 27 mm in experiment [3] (2.0 μg per disc) and 17 mm in the experiment with N. gonorrhoeae H041. The zone of inhibition at 20 µg/disc in experiment [1] (20 μg per disc) was determined as 24 mm; in experiment [2] (20 μg per disc), 29 mm; in experiment [3] (20 μg per disc) it was 36 mm; in the experiment with N. gonorrhoeae H041, 25 mm. The MIC against E. coli W3110 is 25 mg/L (≈ 71.4 µM); against P. aeruginosa PAO1 (PAO1, P. aeruginosa PAO1) it was 3.1 mg/L (≈ 8.85 µM); in the experiment with E. coli W3110PA, 3.1 mg/L (≈ 8.85 µM).

Consider `Cc1ccc(-c2ccc(CN[C@H](C(=O)NO)[C@](C)(O)C(F)F)s2)s1` [Example 7, (2S,3S)-4,4-difluoro-N,3-dihydroxy-3-methyl-2-((5′-methyl-2,2′-bithiophen-5-yl)methylamino)butanamide], for which the zone of inhibition at 2 µg/disc in experiment [2] (2.0 μg per disc) amounted to 21 mm. Also, the results for the MIC against E. coli W3110 and against E. coli W3110PA were 50 mg/L (≈ 133 µM) and 25 mg/L (≈ 66.4 µM), respectively.

`CC(NCc1ccc(-c2ccccc2)cc1)(C(=O)NO)C(C)(O)C(F)F` (centres unmarked) [Example 6, 2-(biphenyl-4-ylmethylamino)-4,4-difluoro-N,3-dihydroxy-2,3-dimethylbutanamide]: the zone of inhibition at 2 µg/disc in experiment [2] (2.0 μg per disc) stood at 22 mm. Also, the MIC against E. coli W3110 was above 50 mg/L; against P. aeruginosa PAO1 (P. aeruginosa PAO1) it was 12.5 mg/L (≈ 34.3 µM); in the experiment with E. coli W3110PA, 12.5 mg/L (≈ 34.3 µM).

As to `CC(CCc1ccc(-c2ccccc2)cc1)(C(=O)NO)C(C)(O)C(F)F` (single isomer, unassigned) [Example 3 Isomer B, 2-(2-(biphenyl-4-yl)ethyl)-4,4-difluoro-N,3-dihydroxy-2,3-dimethylbutanamide], the results for the “diameter of the growth inhibition, 35/02” value in experiment [1] (2.0 μg per disc) and in experiment [1] (20 μg per disc) were 8 mm and 19 mm, respectively. Besides, the entries for the “diameter of the growth inhibition, FA19” value in experiment [2] (setting [5]), in experiment [2] (2.0 μg per disc) and in experiment [2] (20 μg per disc) were 0 mm, 15 mm and 23 mm, respectively. Also, the “MIC E. coli W3110” value in the experiment with E. coli W3110 was above 50 mg/L. Moreover, the results for the “diameter of the growth inhibition, F89” value in experiment [3] (setting [5]), in experiment [3] (2.0 μg per disc) and in experiment [3] (20 μg per disc) were 10 mm, 20 mm and 27 mm, respectively. Besides, the “MIC P. aeruginosa PAO1” value in the experiment on P. aeruginosa PAO1 (P. aeruginosa PAO1, unit from b306, listed as 3 Isomer B) is 25 mg/L (≈ 68.8 µM). For the same compound, the “diameter of the growth inhibition, H041” value with N. gonorrhoeae H041 (setting [5]) was found to be 8 mm; in the experiment with N. gonorrhoeae H041 (2.0 μg per disc), 10 mm; with N. gonorrhoeae H041 (20 μg per disc) it was 20 mm. Besides, the “MIC E. coli W3110PA” value against E. coli W3110PA (listed as 3 Isomer B) amounted to 25 mg/L (≈ 68.8 µM).

Regarding `CC(CCc1ccc(-c2ccccc2)cc1)(C(=O)NO)S(C)(=O)=O` (centres unmarked) [Example 133], the MIC amounted to 3.13 mg/L (≈ 9.01 µM) against E. coli W3110; 0.39 mg/L (≈ 1.12 µM) against P. aeruginosa PAO1 (PAO1, P. aeruginosa PAO1); 0.38 mg/L (≈ 1.09 µM) in the experiment with E. coli W3110PA; 3.13 mg/L (≈ 9.01 µM) in experiment [4].

Regarding `C[C@@](O)(C(F)F)[C@H](NCc1ccc(-c2cccs2)s1)C(=O)NO` [Example 8, (2S,3S)-2-(2,2′-bithiophen-5-ylmethylamino)-4,4-difluoro-N,3-dihydroxy-3-methylbutanamide], the zone of inhibition at 2 µg/disc in experiment [2] (2.0 μg per disc) turned out to be 19 mm. For the same compound, the MIC against E. coli W3110 and in the experiment with E. coli W3110PA was 25 mg/L (≈ 69 µM) in each case.

As for `CC(C)(O)C(C)(CCc1ccc(-c2ccccc2)cc1)C(=O)NO` (centres unmarked) [Example 2, 2-(2-(biphenyl-4-yl)ethyl)-N,3-dihydroxy-2,3-dimethylbutanamide], the MIC in the experiment on E. coli W3110 was above 50 mg/L; against P. aeruginosa PAO1 (PAO1, P. aeruginosa PAO1), 25 mg/L (≈ 76.4 µM); in the experiment with E. coli W3110PA it was 25 mg/L (≈ 76.4 µM).

In the case of `CC(NCCCc1ccc(-c2ccccc2)cc1)(C(=O)NO)C(C)(O)C(F)F.Cl` (single isomer, unassigned) [Example 134], the “diameter of the growth inhibition, 35/02” value in experiment [1] (0.2 μg per disc) is listed as 12 mm; in experiment [1] (2.0 μg per disc) it was 23 mm; in experiment [1] (20 μg per disc), 28 mm. Further, the “diameter of the growth inhibition, FA19” value was 14 mm in experiment [2] (0.2 μg per disc), 24 mm in experiment [2] (2.0 μg per disc) and 30 mm in experiment [2] (20 μg per disc). Besides, the “MIC E. coli W3110” value in the experiment with E. coli W3110 was determined as 1.25 mg/L. Besides, the “diameter of the growth inhibition, F89” value in experiment [3] (0.2 μg per disc) turned out to be 21 mm; in experiment [3] (2.0 μg per disc) it was 28 mm; in experiment [3] (20 μg per disc), 36 mm. Besides, the “MIC P. aeruginosa PAO1” value in the experiment with P. aeruginosa PAO1 (P. aeruginosa PAO1) stood at 2.5 mg/L. In addition, the “diameter of the growth inhibition, H041” value amounted to 14 mm in the experiment with N. gonorrhoeae H041 (0.2 μg per disc), 21 mm in the experiment with N. gonorrhoeae H041 (2.0 μg per disc) and 26 mm in the experiment with N. gonorrhoeae H041 (20 μg per disc).

In the case of `CC(CCc1ccc(-c2ccccc2)cc1)(C(=O)NO)C(C)(O)C(F)F` (single isomer, unassigned) [Example 3 Isomer A, 2-(2-(biphenyl-4-yl)ethyl)-4,4-difluoro-N,3-dihydroxy-2,3-dimethylbutanamide], the results for the zone of inhibition at 0.2 µg/disc (in experiment [1] (0.2 μg per disc); in experiment [3] (0.2 μg per disc); in the experiment on N. gonorrhoeae H041) were 0 mm, 18 mm and 9 mm, respectively. The zone of inhibition at 2 µg/disc in experiment [1] (2.0 μg per disc) was 13 mm; in experiment [2] (2.0 μg per disc), 20 mm; in experiment [3] (2.0 μg per disc), 27 mm; in the experiment with N. gonorrhoeae H041, 16 mm. In addition, the zone of inhibition at 20 µg/disc in experiment [1] (20 μg per disc) turned out to be 19 mm; in experiment [2] (20 μg per disc), 30 mm; in experiment [3] (20 μg per disc), 33 mm; with N. gonorrhoeae H041 it was 24 mm. For the same compound, in experiment [2] (0.2 μg per disc, listed as 3 (Isomer A)), the “diameter of the growth inhibition, FA19” value is 11 mm. This compound had an MIC in the experiment on E. coli W3110 of 50 mg/L (≈ 138 µM). Moreover, the “MIC P. aeruginosa PAO1” value in the experiment with P. aeruginosa PAO1 (P. aeruginosa PAO1, unit from b306, listed as 3 Isomer A) was 6.3 mg/L (≈ 17.3 µM). The “MIC E. coli W3110PA” value in the experiment on E. coli W3110PA (listed as 3 Isomer A) stood at 3.1 mg/L (≈ 8.53 µM).
